Measurements taken from patent US7811817B2, “Establishment of a human embryonic stem cell line using mammalian cells” (Reliance Life Sciences Pvt. Ltd., priority 2005, dated 2010).

Assays:
[1] = tested on: mouse ES cell-derived hepatocytes; assay: In vitro hepatotoxicity model using hepatocytes differentiated from mouse ES cells, enzyme release into supernatant; format: cell-based; conditions: pretreatment 24 hr, 25 μM; 0.6% CCl4 for 180 minutes
Description: Hepatocytes were differentiated from mouse ES cells and exposed to carbon tetrachloride (0.6%) for 180 minutes in the absence and presence of N-acetylcysteine (NAC), an antioxidant (25 μM). Levels of the following enzymes were determined by biochemical methods: Panel A: SGOT; Panel B: SGPT; Panel C: ALP; and Panel D: LDH.
Mouse ES cells were differentiated into hepatocytes by the formation of EBs in a medium without LIF. After 4 days in suspension, 15-20 EBs were plated onto 35 mm culture dishes pre-coated with 1% matrigel (BD Biosciences, USA), and allowed to differentiate for 20-25 days. Concentration of growth factors, cytokines (e.g., bone morphogenetic proteins (BMP2 and BMP4), hepatocyte growth factor (HGF), acidic-fibroblast growth factor (aFGF), and basic-FGF (bFGF)) and corticosteroids (e.g., dexamethasone) were optimized for hepatic differentiation. The differentiated cells obtained were confirmed to be hepatocytes by checking the positive expression of hepatic markers by RT-PCR and immunocytochemistry. […]
The cell supernatant was used for the determination of SGPT, SGOT, ALP, and LDH levels, per the manufacturer's protocol. […] The samples were analyzed using a Konelab-20i autoanalyser (Thermo Clinical Lab Systems, Finland). The levels were expressed as units/Liter.

[2] = tested on: HepG2, a human hepatocarcinoma cell line; assay: Exposure of HepG2 cells to carbon tetrachloride, enzyme release into supernatant (hepatotoxicity model); format: cell-based

| SMILES | effect on CCl4-induced increase in release of SGOT, SGPT, ALP and LDH [1] | time of maximum release of SGOT, SGPT, ALP and LDH ([2]; 0.6% CCl4) [min] | SGOT, SGPT, ALP and LDH levels (enzyme release, hepatocyte damage) ([2]; 0.6% CCl4, exposure 30-240 minutes, cell supernatant) |
| --- | --- | --- | --- |
| CC(=O)N[C@@H](CS)C(=O)O [N-acetylcysteine] | effectively blocked the increase in the release of these enzymes |  |  |
| ClC(Cl)(Cl)Cl [CCl4, carbon tetrachloride] |  | 180 | time-dependent increases |
